Laboratory results: PubChem BioAssay (NCI)
Where “and” joins values, the source holds several entries; their conditions need not be identical. Identical values can stand only once.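 Tested at 5 concentrations; 48 h exposure; 96-well plates; endpoints linearly interpolated, else capped at highest concentration. GI50 = concentration required for 50% inhibition of growth. Definition used: TGI = concentration required for complete inhibition of growth.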

What was measured:
Assay in all cases: NCI tumour cell line growth inhibition, 48 h
[1] = test system: OVCAR-5 ovarian
[2] = test system: UO-31 renal
[3] = test system: TK-10 renal
[4] = test system: SK-MEL-2 melanoma
[5] = test system: K-562 leukemia
[6] = test system: OVCAR-8 ovarian
[7] = test system: 786-0 renal
[8] = test system: HOP-92 NSCLC
[9] = test system: T-47D breast
[10] = test system: UACC-62 melanoma

SMILES	GI50 [1] [µM]	TGI [1]	GI50 [2] [µM]	TGI [2]	GI50 [3] [µM]	TGI [3]	TGI [4] [µM]	GI50 [5] [µM]	TGI [5]	GI50 [6] [µM]	TGI [6]	TGI [7]	GI50 [8] [µM]	TGI [8]	GI50 [9] [µM]	TGI [9]	GI50 [10] [µM]	TGI [10]	GI50 [4] [µM]	GI50 [7] [µM]
COc1ccc2nc3cc([N+](=O)[O-])ccc3c(NNc3ccccc3)c2c1	14.9	47.2 µM and > 100 µM	13.1	34.3 µM and > 100 µM	12.1	30 µM and > 100 µM	> 78.9	3.49	29.4 µM and > 100 µM	6.77	22.5 µM and > 100 µM	40.4 µM and 44 µM	11.5	28 µM and 47.4 µM	10.1	35.7 µM and > 100 µM	5.93	22.8 µM and 25.1 µM	–	–
NC(Cc1c[nH]c2ccc(F)cc12)C(=O)O (configuration not stated)	814	> 2500 µM	444	1950 µM	> 2500	> 2500 µM	> 2500	887	> 2500 µM	751	> 2500 µM	> 2500 µM	–	> 2500 µM	1730	> 2500 µM	755	> 2500 µM	2250	1200
O=C1c2ccccc2C(=O)c2c1ccc1c(=O)n(-c3ccccc3C(F)(F)F)nnc21	2.19	6.01 µM	1.68	> 100 µM	3.89	> 100 µM	7.61	1.76	> 100 µM	2.49	> 100 µM	> 100 µM	2.08	5.94 µM	1.86	6.98 µM	1.52	3.21 µM	2.64	4.09
C(=Nc1cnc2ccccc2c1)c1ccc2ccccc2n1	–	> 100 µM	–	> 100 µM	–	> 100 µM	> 100	–	> 100 µM	–	> 100 µM	> 100 µM	–	> 100 µM	–	> 100 µM	–	> 100 µM	–	–
COc1ccc(C(=O)O[C@H]2[C@H](O[C@H]3[C@@H](O)COC(O[C@H]4C[C@H]5[C@@H]6CC=C7C[C@@H](O)CC[C@]7(C)[C@H]6CC[C@]5(C)[C@H]4[C@H](C)C(=O)CCC(C)C)[C@@H]3OC(C)=O)OC[C@@H](O)[C@@H]2O)c(C)c1 (some centres not stated)	0.103	26.9 µM	< 0.01	0.0335 µM	0.27	34.8 µM	3.23	< 0.01	13.9 µM	20.1	> 100 µM	7.38 µM	< 0.01	0.0866 µM	0.0133	19.1 µM	< 0.01	< 0.01 µM	< 0.01	< 0.01
Cc1ccc(-c2nc(N3CCNCC3)c3oc(-c4ccccc4)nc3n2)cc1	1.68	3.36 µM	1.43	2.78 µM	1.68	3.09 µM	6.01	1.61	3.55 µM	1.95	4.15 µM	3.25 µM	1.66	3.36 µM	1.81	3.83 µM	1.74	3.19 µM	2.64	1.77
CN(C)Cc1ccc(C(C)(C)C)cc1-c1cc(C(C)(C)C)ccc1CN(C)C	–	> 100 µM	–	> 100 µM	–	> 100 µM	> 100	–	> 100 µM	–	> 100 µM	> 100 µM	–	> 100 µM	–	> 100 µM	–	> 100 µM	–	–
COc1ccc(Cn2cc3c(c2)-c2oncc2CC3)cc1OC	0.339	> 41.9 µM	0.272	23.8 µM	0.453	> 50 µM	15.1	0.163	> 16.6 µM	0.322	> 31.7 µM	> 21.2 µM	1.15	36.3 µM	0.267	> 19.3 µM	0.273	> 50 µM	0.248	0.536
CN(C)C=NC1CCC(C(C)(C)C)CC1 (configuration not stated)	–	37.2 µM	–	30.8 µM	–	38.6 µM	35.4	–	45.1 µM	–	28.9 µM	33.3 µM	–	34.6 µM	–	37.5 µM	–	33.8 µM	–	–
C/C(=N\n1c(O)c(C#N)cc(C#N)c1=O)c1ccncc1	> 100	> 100 µM	> 100	> 100 µM	> 100	> 100 µM	> 100	> 100	> 100 µM	> 100	> 100 µM	> 100 µM	> 100	> 100 µM	> 100	> 100 µM	> 100	> 100 µM	> 100	> 100
O=C1C=CC(=Nc2cccc3c(N=C4C=CC(=O)O4)cccc23)O1	–	> 100 µM	–	> 100 µM	–	33.3 µM	> 100	–	55.6 µM	–	41.1 µM	34.5 µM	–	> 100 µM	–	> 100 µM	–	> 100 µM	–	–
COc1cccc(/C=C/c2ccnc3ccccc23)c1OC	–	> 10 µM	–	> 10 µM	–	> 10 µM	> 10	–	> 10 µM	–	> 10 µM	> 10 µM	–	> 10 µM	–	> 10 µM	–	> 10 µM	–	–
C[C@@H](NC(=O)c1ncnc(N)c1Cl)c1ncc(C(=O)Nc2cc(C(F)(F)F)c(Cl)cn2)s1	5.88	> 90.5 µM	8.98	44.4 µM	19.6	46.6 µM	8.04	0.462	> 45.9 µM	15.1	40.8 µM	> 100 µM	1.46	9.44 µM	24.2	> 83.8 µM	0.402	8.7 µM	2.08	36.3
Cc1ccc(Cl)cc1NC(=O)c1cc2ccccc2cc1O	0.992	10.7 µM	0.201	1.47 µM	0.948	4.46 µM	0.707	0.365	10.1 µM	0.356	12.4 µM	1.94 µM	0.222	0.724 µM	1.14	5.06 µM	0.308	2.65 µM	0.19	0.507
Cc1ccc(NC(=O)Nc2c(Cl)cccc2Cl)cn1	72.9	> 100 µM	47	> 100 µM	18.1	41.6 µM	27.5	4.03	> 100 µM	19.4	> 100 µM	> 100 µM	16.8	> 100 µM	13.9	> 100 µM	5.76	> 100 µM	5.87	61.2
